“Also recorded” adds a separate entry of the source. Where two headings read alike, the source gives them in different places.
Assays:
IL-8-induced chemotaxis = conditions: cited from earlier work
oral bioavailability = conditions: in vivo
[1] = test system: IL-8-stimulated neutrophil chemotaxis; test: In vitro neutrophil chemotaxis, IL-8, transwell chamber assay; type: cell-based, human; conditions: for inhibition at 0.01 µM: read-out: inhibition of chemotaxis at 0.01 μM, 0.01 μM inhibitor alone; for IC50: 3.125 nM IL-8, 3 hours
Procedure: Subsequently, the cells were stimulated with 3.125 nM of IL-8 for a period of 3 hours at which time the migrated cells were quantified using a cell sorter as described elsewhere. Percent inhibition was calculated based on the differences in the number of migrated cells compared to IL-8 alone controls.
The migrated cells were quantitated as described, and the percent inhibition was represented.
Number of cells migrated was measured 3 hours after IL-8 stimulation and expressed as percent control. Each value represents the average ±S.E. obtained from at least three different donors with duplicates in each set.
(§1) Polymorphonuclear leukocytes (PMNs) were isolated from whole blood obtained from healthy human donors. Plasma was separated from the remainder of the blood using a Dextran density gradient. Red blood cells (RBCs) and PMNs were further isolated by centrifugation at 2500 rpm for 15 minutes, using a Lymphoprep sedimentation solution. RBCs were lysed with 0.2% NaCl, neutralized with 1.8% NaCl, and the remaining neutrophils were resuspended in RPMI binding buffer at a final concentration of 10 million cells/mL.
The neutrophil chemotaxis assay was conducted with 1 million cells per well in […] polycarbonate membrane transwell plates (Corning-Costar, Cambridge, Mass.). The various inhibitors were prepared as 1 or 10 mM stock solutions in dimethyl sulphoxide (DMSO). Inhibitor dilutions were prepared in RPMI binding buffer, maintaining a constant final concentration of DMSO in all conditions. Neutrophils were preincubated with the respective inhibitor in the top well of the plate for 30 minutes at room temperature prior to exposure to IL-8. An equivalent concentration of the respective inhibitor was placed in the bottom well to prevent any concentration gradient. DMSO concentration was maintained in all wells as a vehicle control. […] Neutrophils that migrated completely across the 3-μM filter were quantitated using FACS analysis with appropriate forward and sideward scatter. Percentage inhibition relative to the positive control (IL-8 alone) was calculated for each condition after subtracting the blank reading (no IL-8).

PMNs = test: cytotoxicity on the PMNs; conditions: higher concentrations of the drug
[2] = in vivo; cited from earlier work
IL-8 activation of ERK = IL-8 activation of ERK in human PMNs, Western blot with phospho-specific ERK antibody; type: cell-based; conditions: for inhibition of IL-8 activation of ERK at 0.1 μM: 0.1 μM inhibitor
Procedure: Activation of MAPK was examined by phospho-specific ERK antibody in isolated human PMNs that were stimulated with 3 nM of IL-8 for various periods of time (A). […] The effect of the inhibitors was monitored by measuring p-ERK activity by Western blotting. The blots were normalized using the ERK antibody.
as §1
Neutrophils were preincubated with the respective inhibitor for 30 minutes at room temperature in 1.5-mL microfuge tubes prior to addition of IL-8 (3.125 nM). […] Thus, neutrophils were exposed to IL-8 for 5 minutes at room temperature, after which whole cell lysates were obtained via lysis with RIPA buffer and analyzed by Western blot analysis using phospho specific antibodies, p44/42 MAP (ERK) and p38 MAPK kinase. Standard Western blotting was performed using chemiluminescence. All blots were normalized with the respective nonphosphorylated antibodies.
To confirm IL-8 activation of ERK, neutrophils were stimulated with 3 nM of IL-8 for various periods of time, ranging from 0 to 30 minutes (FIG. 1A).
(§2) The role of PI3K in IL-8 activation of ERK has been controversial. […] In parallel, kinase assays were performed to examine the MEK1/2 activity in response to IL-8.

MEK1/2 = test: kinase assays of MEK1/2 activity in response to IL-8; type: cell-based, human; conditions: pre-treatment with inhibitor
Procedure: as §2

colon cancer cells = conditions: read-out: IC50, decrease of endogenous constitutive MAPK activation or growth in soft agar; cited from earlier work
[3] = test system: IL-8-induced neutrophil recruitment to the skin; test: IL-8 skin recruitment model (in vivo rabbit neutrophil recruitment assay)
Procedure: Three hours after the last dose, animals were injected with ^125I IL-8 (10μCi), and 10 minutes later various doses of cold (unlabeled) IL-8 was injected intradermally at local sites on the back of the rabbits. Sixty minutes later, the animals were sacrificed, punch biopsies were performed, and the radiation in the skin was measured using a gamma counter. Each value represents the average±standard deviation error of three representative experiments with three animals in each group and triplicates within each treatment. The asterisk indicates significant (p<0.05) differences between the respective treatments in control animals versus drug-administered animals. […]
In control rabbits, the vehicle was administered. […] The biopsies were weighed and sample-associated radioactivity was determined using a gamma counter (Packard Model #05005, Downers Grove, Ill.).
In each experiment, triplicate samples were obtained for each experimental condition. In studies where IL-8 was not tested or the highest 1-μg dose of IL-8 was not used, the data is expressed as either raw counts or adjusted counts. […] In dose-response studies where the 1-μg dose of IL-8 was used, the weight-normalization background (vehicle-treated skin) was subtracted from weight-normalized treated samples, and the data was then expressed as a percent maximal response to the 1-μg dose of IL-8. […]

Compound: COc1cccc(-c2cc(=O)c3ccccc3o2)c1N [2-(2-amino-3-methoxy-phenyl)-chromen-4-one]
- inhibition of IL-8-induced chemotaxis in previous studies (IL-8-induced chemotaxis): lack of inhibition
- oral bioavailability (oral bioavailability): orally nonbioavailable

Compound: COC[C@H]1OC(=O)c2coc3c2[C@@]1(C)C1=C(C3=O)[C@@H]2CCC(=O)[C@@]2(C)C[C@H]1OC(C)=O [Wortmannin, reference compound]
- inhibition of chemotaxis at 0.01 μM ([1]; 0.01 μM inhibitor alone, 0.01 µM): 28%
- inhibition at 0.001 µM ([1]; Homo sapiens, Neutrophil, read-out: inhibition of chemotaxis at 0.001 μM, 0.001 μM inhibitor, 3.125 nM IL-8): 25 to 30%
- inhibition at 0.01 µM ([1]; Homo sapiens, Neutrophil): ~30%
- inhibition at 1 µM ([1]; Homo sapiens, Neutrophil, read-out: inhibition of chemotaxis at 1 μM, 1 μM inhibitor, 3.125 nM IL-8): 100%
- IC50 ([1]; Homo sapiens, Neutrophil): 20 nM
- cytotoxicity effects on the PMNs (PMNs): No visible cytotoxicity effects

Compound: O=C(NOCC1CC1)c1ccc(F)c(F)c1Nc1ccc(I)cc1Cl [2-(2-chloro-4-iodo-phenylamino)-N-cyclopropylmethoxy-3,4-difluoro-benzamide]
- bioavailability, as recently described [2]: bioavailable
- effect on IL-8-induced ERK activation at 0.01 μM (IL-8 activation of ERK; 0.01 μM inhibitor): blocks ERK activation completely
- inhibition of IL-8 activation of ERK at 0.1 μM (IL-8 activation of ERK): almost completely blocks; also recorded: completely inhibited
- inhibition of IL-8 activation of ERK at 0.1 μM (IL-8 activation of ERK; listed as 2-(2-Chloro-4-iodo-phenylamino)-N-cyclopropylmethoxy-3,4-difluoro-benzamide): almost completely blocked
- inhibition of IL-8 activation of ERK (IL-8 activation of ERK; inhibitor 0 to 100 μM for 30 minutes, then IL-8 for 5 minutes): dose dependent inhibition; also recorded: clearly blocked
- inhibition of chemotaxis at 0.001 μM ([1]; 0.001 μM inhibitor, 3.125 nM IL-8): minimal inhibition
- inhibition at 0.1 µM ([1]; Homo sapiens, Neutrophil, read-out: inhibition of chemotaxis at 0.1 nM IL-8, 0.1 μM inhibitor, 0.1 nM IL-8): ~80%
- inhibition at 0.01 µM ([1]; Homo sapiens, Neutrophil): ~50%
- inhibition at 0.1 µM ([1]; Homo sapiens, Neutrophil, read-out: inhibition of chemotaxis at 100 nM IL-8, 0.1 μM inhibitor, 100 nM IL-8): ~30%
- IC50 ([1]; Homo sapiens, Neutrophil): 140 nM
- maximal inhibition of IL-8-induced chemotaxis, compound alone ([1]; maximal block, single agent): 60%
- inhibition of IL-8 activation of MEK1/2 (MEK1/2): inhibited
- IC50 (colon cancer cells): 150 nM
- decrease of IL-8-induced neutrophil recruitment in vivo ([3]; 30 mg/kg PO three times at 8 hour intervals, higher IL-8 concentrations tested): ~50%
- number of neutrophils recruited to the skin ([3]; 30 mg/kg PO three times, all IL-8 concentrations tested): consistently decreased

Source: US6972298B2, “Method of treating or inhibiting neutrophil chemotaxis by administering a MEK inhibitor” (Warner-Lambert Company, priority 2001, dated 2005)
